From the NIST ThermoML archive (doi:10.1016/j.fluid.2012.09.001)
Values joined by “and” are separate entries in the source; they are usually repeats but may differ in a detail not shown here. Identical values can stand only once.

Assay: molar heat capacity at constant pressure
Conditions: 101.33 kPa, Liquid, Flow calorimetry

CCC(Cl)Cl [1,1-dichloropropane]
Conditions	molar heat capacity at constant pressure
268.3 K	148.83 J/K/mol and 149.66 J/K/mol
268.31 K	149.49 J/K/mol
278.51 K	150.33 J/K/mol and 150.24 J/K/mol and 149.99 J/K/mol
288.72 K	151.82 J/K/mol and 151.99 J/K/mol and 152.4 J/K/mol
298.93 K	152.82 J/K/mol and 153.65 J/K/mol
309.14 K	155.23 J/K/mol and 154.57 J/K/mol and 154.15 J/K/mol
319.35 K	155.9 J/K/mol and 157.73 J/K/mol and 155.56 J/K/mol
329.56 K	157.23 J/K/mol and 157.31 J/K/mol and 157.64 J/K/mol
339.77 K	158.97 J/K/mol and 159.06 J/K/mol and 159.31 J/K/mol

CC(Cl)CCl (configuration not stated) [1,2-dichloropropane]
Conditions	molar heat capacity at constant pressure
268.3 K	153.32 J/K/mol and 152.99 J/K/mol
278.51 K	154.15 J/K/mol and 153.9 J/K/mol
288.72 K	155.4 J/K/mol and 155.15 J/K/mol
298.93 K	156.81 J/K/mol and 156.64 J/K/mol
309.14 K	158.06 J/K/mol and 157.73 J/K/mol
319.35 K	159.39 J/K/mol and 159.22 J/K/mol
329.56 K	161.05 J/K/mol and 161.22 J/K/mol
339.77 K	162.8 J/K/mol

CC(C)(Cl)Cl [2,2-dichloropropane]
Conditions	molar heat capacity at constant pressure
260.64 K	150.33 J/K/mol and 150.49 J/K/mol and 150.24 J/K/mol
268.3 K	151.41 J/K/mol and 151.24 J/K/mol and 150.99 J/K/mol
278.52 K	152.32 J/K/mol and 152.24 J/K/mol
288.72 K	153.98 J/K/mol and 153.82 J/K/mol and 154.07 J/K/mol
298.93 K	155.65 J/K/mol and 154.98 J/K/mol
309.14 K	157.39 J/K/mol and 157.14 J/K/mol and 156.98 J/K/mol
319.35 K	159.22 J/K/mol and 158.81 J/K/mol and 158.89 J/K/mol
329.56 K	161.13 J/K/mol and 160.22 J/K/mol

Cl/C=C/Cl [(E)-1,2-dichloroethene]
Conditions	molar heat capacity at constant pressure
268.3 K	112.74 J/K/mol [middle of 4 runs]
278.51 K	112.83 J/K/mol [middle of 4 runs]
288.72 K	113.41 J/K/mol [middle of 4 runs]
298.93 K	113.99 J/K/mol [middle of 4 runs]
309.14 K	114.49 J/K/mol [middle of 4 runs]

Cl/C=C\Cl [(Z)-1,2-dichloroethene]
Conditions	molar heat capacity at constant pressure
258.09 K	110.33 J/K/mol and 110.08 J/K/mol
263.2 K	110.33 J/K/mol and 110.42 J/K/mol
268.3 K	110.58 J/K/mol and 110.75 J/K/mol
273.41 K	111 J/K/mol
278.51 K	111.08 J/K/mol and 111 J/K/mol
283.62 K	111.41 J/K/mol and 111.58 J/K/mol
288.72 K	111.91 J/K/mol and 111.75 J/K/mol
293.83 K	112.58 J/K/mol [middle of 4 runs]
298.93 K	112.99 J/K/mol and 112.66 J/K/mol and 112.49 J/K/mol
304.04 K	113.41 J/K/mol and 113.49 J/K/mol
309.14 K	113.91 J/K/mol and 113.74 J/K/mol

ClC(Cl)(Cl)c1ccccc1 [(trichloromethyl)benzene]
Conditions	molar heat capacity at constant pressure
260.64 K	209.61 J/K/mol and 209.36 J/K/mol and 209.11 J/K/mol
265.75 K	210.94 J/K/mol and 210.44 J/K/mol and 210.27 J/K/mol
270.85 K	211.44 J/K/mol and 211.35 J/K/mol and 211.19 J/K/mol
275.96 K	212.52 J/K/mol and 212.77 J/K/mol
281.06 K	214.18 J/K/mol and 213.93 J/K/mol
286.17 K	215.59 J/K/mol and 215.34 J/K/mol
291.27 K	217.09 J/K/mol and 217.01 J/K/mol and 216.92 J/K/mol
296.38 K	217.76 J/K/mol and 217.92 J/K/mol and 218.01 J/K/mol
301.48 K	219.34 J/K/mol and 219.17 J/K/mol and 219.25 J/K/mol
309.14 K	220.75 J/K/mol
319.35 K	223.83 J/K/mol
329.56 K	226.49 J/K/mol
339.77 K	228.56 J/K/mol
349.98 K	230.89 J/K/mol

ClC=C(Cl)Cl [trichloroethene]
Conditions	molar heat capacity at constant pressure
260.64 K	126.71 J/K/mol and 126.63 J/K/mol
265.75 K	126.71 J/K/mol and 126.8 J/K/mol and 126.96 J/K/mol
270.85 K	126.96 J/K/mol [middle of 4 runs]
275.96 K	127.13 J/K/mol [middle of 4 runs]
281.06 K	127.38 J/K/mol and 127.46 J/K/mol and 127.79 J/K/mol
286.17 K	127.96 J/K/mol and 127.88 J/K/mol and 128.38 J/K/mol
291.27 K	128.38 J/K/mol [middle of 4 runs]
296.38 K	128.54 J/K/mol [middle of 4 runs]
301.48 K	128.96 J/K/mol [middle of 4 runs]
309.14 K	129.21 J/K/mol and 129.04 J/K/mol and 130.29 J/K/mol
319.35 K	130.29 J/K/mol and 131.12 J/K/mol
329.56 K	130.95 J/K/mol and 131.12 J/K/mol
